Here are results for 5 compounds from patent US7276524B2, “Pyridyl alkane acid amides as cytostatics and immunosuppressives” (Astellas Deutschland GmbH, priority 1996, dated 2007).

`CCN(CCCCC1CCN(C(c2ccccc2)c2ccccc2)CC1)C(=O)CCc1cccnc1` [compound 68, N-[4-(1-diphenylmethyl-piperidin-4-yl)-butyl]-N-ethyl-3-(pyridin-3-yl) -propionamide] yielded a melting point of 72 to 74 °C. The figure for `O=C(COc1cccnc1)NCCCCC1CCN(C(c2ccccc2)c2ccccc2)CC1` [compound 84, N-[4-(1-diphenylmethyl-piperidin-4-yl)-butyl]-2-(pyridin-3-yloxy)-acetamide] is 103 to 105 °C; for `O=C(CCc1cccnc1)NCCCCCC1CCN(C(c2ccccc2)c2ccccc2)CC1` [compound 101, N-[5-(1-diphenylmethyl-piperidin-4-yl)-pentyl]-3-(pyridin-3-yl)-propionamide] it is 112 to 114 °C. The same measure for `O=C(CCc1cccnc1)NCCCCC1CCN(C2c3ccccc3COc3ccccc32)CC1` (centres unmarked) [compound 142, N-{4-[1-(6,11-dihydrodibenzo[b,e]oxepin-11-yl)-piperidin-4-yl]-butyl}-3-(pyridin-3-yl)-propionamide]: 110 to 112 °C. As for `O=C(CCc1cccnc1)NCCCCC1CCN(C(=O)c2ccccc2)CC1` [compound 162, N-[4-(1-benzoylpiperidin-4-yl)-butyl]-3-(pyridin-3-yl)-propionamide], the melting point is 72 to 74 °C.

The melting point is the temperature of the solid-liquid transition.
